# Results: article PMC12079475, “Identification, validation, and characterization of approved and investigational drugs interfering with the SARS‐CoV‐2 endoribonuclease Nsp15” (Protein Science : A Publication of the Protein Society, 2025)
# pEC50, pIC50: −log10 of the molar value. Counter-ions that a name gives are not always drawn. Like-named read-outs stand apart in the source and are kept apart here.
# Legend:
# SARS‐CoV‐2 Nsp15 [1] = molecular target: T1, SARS‐CoV‐2 Nsp15 (Severe acute respiratory syndrome coronavirus 2, UniProt P0DTD1); assay: biochemical; conditions: for pIC50: read-out: IC50 +DTT
# SARS‐CoV‐2 Nsp15 [2] = molecular target: T1, SARS‐CoV‐2 Nsp15; assay: biochemical; type: biochemical; conditions: for inhibition at 10 µM: read-out: Inhibition % +L-Cys 10 µM; for loss of the inhibition potency in L‐cysteine buffer: 1 mM L‐cysteine buffer compared with DTT buffer; for pIC50: L-cysteine buffer (Table S1), read-out: IC50 +L-Cys
# Nsp15 = Nsp15 (Severe acute respiratory syndrome coronavirus 2, UniProt P0DTD1)
# [3] = test system: SARS‐CoV‐2 in Vero‐E6 cells; set-up: method as in Zaliani et al., 2022; conditions: ref Zaliani et al., 2022, read-out: EC50 cytopathic (CPE) assay; cited from earlier work
# Vero‐E6 cells = conditions: tested concentration range up to 32 μM; ref Zaliani et al., 2022; cited from earlier work
# [4] = 1 mM DTT buffer, confidence interval in brackets, read-out: IC50 + DTT (μM) (CI in μM)
# [5] = hit confirmation, 10 µM, DTT buffer, read-out: HC inhibition % +DTT 10 µM
# [6] = primary screen, 10 µM (Table S1), read-out: PS Inhibition % 10 µM
# [7] = primary screen, 10 μM compound, 1 mM DTT buffer, normalized to 50 μM Congo red (100%) and DMSO (0%), read-out: PS inhibition % 10 μM (single point measurement)
# [8] = 1 mM L-cysteine buffer, confidence interval in brackets, read-out: IC50 + L‐Cys (μM) (CI in μM)
# [9] = hit confirmation, 10 µM, DTT buffer
# [10] = primary screen, 10 µM (Table S1)
# [11] = primary screen, 10 μM compound, 1 mM DTT buffer, normalized to 50 μM Congo red (100%) and DMSO (0%)
Compound,IC50 (SARS‐CoV‐2 Nsp15 [1]; [4]) [µM],pIC50 (SARS‐CoV‐2 Nsp15 [1]; DTT buffer (Table S1)),inhibition at 10 µM (SARS‐CoV‐2 Nsp15 [1]; [5]) [%],inhibition at 10 µM (SARS‐CoV‐2 Nsp15 [1]; [6]) [%],inhibition at 10 µM (SARS‐CoV‐2 Nsp15 [1]; [7]) [%],"inhibition at 10 µM (SARS‐CoV‐2 Nsp15 [2]; 10 µM, L-cysteine buffer) [%]",IC50 (SARS‐CoV‐2 Nsp15 [2]; [8]) [µM],pIC50 (SARS‐CoV‐2 Nsp15 [2]),other results
"CN(C)CCNc1nc2cc(O)ccc2c2c1C(=O)c1ccccc1-2.Cl.Cl [TAS‐103 (dihydrochloride), 6‐[2‐(dimethylamino)ethylamino]‐ 3‐hydroxy‐7H‐indeno[2,1‐C]quinolin‐7‐one dihydrochloride]",6.6,5.18,63.6,63.4,63.4,-33.9,,,loss of the inhibition potency in L‐cysteine buffer (SARS‐CoV‐2 Nsp15 [2]): more than 50%; ΔT m°C nDSF (Nsp15): 0.6 °C
CCOC(=O)CCNc1cc(N2CCc3ccccc3CC2)nc(-c2ccccn2)n1 [GSK J4 HCl],5.5,5.26,82.2,75.8,75.8,77.9,3.8,5.42,
COc1cccc2c1C(=O)c1c(O)c3c(c(O)c1C2=O)C[C@@](O)(C(=O)CO)C[C@@H]3O[C@H]1C[C@H](N)[C@H](O)[C@H](C)O1 [Doxorubicin],,,,,,,,,IC50 (SARS‐CoV‐2 Nsp15 [1]; IC50 + DTT (μM) (CI in μM)): 3.7 µM; IC50 (SARS‐CoV‐2 Nsp15 [1]; IC50 +DTT (µM)): 3.69 µM; IC50 (SARS‐CoV‐2 Nsp15 [2]; IC50 + L‐Cys (μM) (CI in μM)): 2.3 µM; IC50 (SARS‐CoV‐2 Nsp15 [2]; IC50 +L-Cys (µM)): 2.26 µM
Cc1cc2nc3ccc(N(C)C)cc3[s+]c2cc1N [Tolonium chloride],1.7,5.78,76.5,72,72,77.8,1.3,5.87,
O=C1C(Cl)=C(NCCN2CCOCC2)C(=O)c2ncccc21 [NSC‐663284],0.5,6.32,,,,,,,"HC inhibition % +DTT 10 µM (SARS‐CoV‐2 Nsp15 [1]; [9]): 82,57%; PS Inhibition % 10 µM (SARS‐CoV‐2 Nsp15 [1]; [10]): 85,51%; PS inhibition % 10 μM (single point measurement) (SARS‐CoV‐2 Nsp15 [1]; [11]): 85.5%; Inhibition % +L-Cys 10 µM (SARS‐CoV‐2 Nsp15 [2]; 10 µM, L-cysteine buffer): 53,53%"
BVT‐948,0.4,6.39,,,,,,,"HC inhibition % +DTT 10 µM (SARS‐CoV‐2 Nsp15 [1]; [9]): 84,54%; PS Inhibition % 10 µM (SARS‐CoV‐2 Nsp15 [1]; [10]): 72,99%; PS inhibition % 10 μM (single point measurement) (SARS‐CoV‐2 Nsp15 [1]; [11]): 72.9%; Inhibition % +L-Cys 10 µM (SARS‐CoV‐2 Nsp15 [2]; 10 µM, L-cysteine buffer): -3,98%; loss of the inhibition potency in L‐cysteine buffer (SARS‐CoV‐2 Nsp15 [2]): more than 50%"
COc1cccc(C=NCCN=Cc2cccc(OC)c2[O-])c1[O-].[Cl-].[Mn+3] [EUK 134],3.3,5.48,,,,,,,"HC inhibition % +DTT 10 µM (SARS‐CoV‐2 Nsp15 [1]; [9]): 56,68%; PS Inhibition % 10 µM (SARS‐CoV‐2 Nsp15 [1]; [10]): 70,85%; PS inhibition % 10 μM (single point measurement) (SARS‐CoV‐2 Nsp15 [1]; [11]): 70.9%; Inhibition % +L-Cys 10 µM (SARS‐CoV‐2 Nsp15 [2]; 10 µM, L-cysteine buffer): 16,41%; loss of the inhibition potency in L‐cysteine buffer (SARS‐CoV‐2 Nsp15 [2]): more than 50%"
NCCNc1ccc(NCCN)c2c1C(=O)c1ccncc1C2=O [Pixantrone (dimaleate)],5.2,5.28,77.5,82.3,82.3,72.8,4.4,5.36,
COc1cc2c(NC3CCN(CC4CCCCC4)CC3)nc(N3CCCN(C(C)C)CC3)nc2cc1OCCCN1CCCCC1 [UNC0631],2.2,5.66,71.4,84.8,84.8,79.3,2.5,5.60,
COc1cccc2c1C(=O)c1c(O)c3c(c(O)c1C2=O)C[C@@](O)(C(=O)CO)C[C@@H]3O[C@H]1C[C@H](N2CCO[C@H](OC)C2)[C@H](O)[C@H](C)O1 [Nemorubicin],2.6,5.58,69.2,65.2,65.2,69,1.3,,
CN[C@H](CC(C)C)C(=O)N[C@H]1C(=O)N[C@@H](CC(N)=O)C(=O)N[C@H]2C(=O)N[C@H]3C(=O)N[C@H](C(=O)N[C@H](C(=O)O)c4cc(O)cc(O)c4-c4cc3ccc4O)[C@H](O[C@H]3C[C@](C)(N)[C@@H](O)[C@H](C)O3)c3ccc(c(Cl)c3)Oc3cc2cc(c3O[C@@H]2O[C@H](CO)[C@@H](O)[C@H](O)[C@H]2O[C@H]2C[C@](C)(NCc3ccc(-c4ccc(Cl)cc4)cc3)[C@@H](O)[C@H](C)O2)Oc2ccc(cc2Cl)[C@H]1O.O=P(O)(O)O.O=P(O)(O)O [Oritavancin (diphosphate)],2.5,5.60,,,,,1.2,5.91,"HC inhibition % +DTT 10 µM (SARS‐CoV‐2 Nsp15 [1]; [9]): 92,52%; PS Inhibition % 10 µM (SARS‐CoV‐2 Nsp15 [1]; [10]): 86,71%; PS inhibition % 10 μM (single point measurement) (SARS‐CoV‐2 Nsp15 [1]; [11]): 86.7%; Inhibition % +L-Cys 10 µM (SARS‐CoV‐2 Nsp15 [2]; 10 µM, L-cysteine buffer): 91,07%; ΔT m°C nDSF (Nsp15): 0 °C"
COc1cc2c(NC3CCN(C(C)C)CC3)nc(C3CCCCC3)nc2cc1OCCCN1CCCC1 [UNC0638],2.8,5.55,69.5,56.7,56.7,69.9,4.8,5.32,
Oc1ccc2ccccc2c1SSc1c(O)ccc2ccccc12 [IPA‐3],,,,,,,,,"HC inhibition % +DTT 10 µM (SARS‐CoV‐2 Nsp15 [1]): 89,23%; PS Inhibition % 10 µM (SARS‐CoV‐2 Nsp15 [1]): 86,58%; PS inhibition % 10 μM (single point measurement) (SARS‐CoV‐2 Nsp15 [1]): 86.6%; IC50 (SARS‐CoV‐2 Nsp15 [1]; read-out: IC50 + DTT (μM) (CI in μM)): 0.9 µM; pIC50 (SARS‐CoV‐2 Nsp15 [1]): 6.00; Inhibition % +L-Cys 10 µM (SARS‐CoV‐2 Nsp15 [2]): 51,34%"
CC1(C)CCC2=C(O1)C(=O)c1ccccc1C2=O [alphaLapachone],2.2,5.67,82.8,76,76,28.6,,,loss of the inhibition potency in L‐cysteine buffer (SARS‐CoV‐2 Nsp15 [2]): more than 50%
Cc1[nH]c2ccc(F)cc2c1-c1nc2c3cccnc3c3ncccc3c2[nH]1 [APTO‐253],7.8,5.11,,,,,,,"HC inhibition % +DTT 10 µM (SARS‐CoV‐2 Nsp15 [1]; [9]): 78,02%; PS Inhibition % 10 µM (SARS‐CoV‐2 Nsp15 [1]; [10]): 61,11%; PS inhibition % 10 μM (single point measurement) (SARS‐CoV‐2 Nsp15 [1]; [11]): 61.1%; Inhibition % +L-Cys 10 µM (SARS‐CoV‐2 Nsp15 [2]; 10 µM, L-cysteine buffer): 48,13%"
COc1cc2c(NC3CCN(C)CC3)nc(N3CCCN(C)CC3)nc2cc1OCCCN(C)C [UNC0224],2.6,5.59,73.9,70.6,70.6,83.2,4,,
COc1cc2c(NC3CCN(C)CC3)nc(N3CCCN(C)CC3)nc2cc1OCCOCCN(C)C [UNC0321],3.9,5.41,77.6,64,63.9,72.9,3.2,5.49,
COc1cc2c(NC3CCN(C(C)C)CC3)nc(N3CCC(F)(F)CC3)nc2cc1OCCCN1CCCC1 [UNC0642],6.3,5.20,77.5,56.9,56.9,80.2,3.3,5.49,pEC50 [3]: 4.78; CC50 (Vero‐E6 cells): > 32 µM
COc1cc2c(cc1OC)CN(CCc1ccc(NC(=O)c3cccc4c(=O)c5cccc(OC)c5[nH]c34)cc1)CC2 [Elacridar],4.9,5.30,72.7,68.3,68.3,15.9,,,loss of the inhibition potency in L‐cysteine buffer (SARS‐CoV‐2 Nsp15 [2]): more than 50%
COc1cccc2c1C(=O)c1c(O)c3c(c(O)c1C2=O)C[C@@](O)(C(=O)CO)C[C@@H]3O[C@H]1C[C@H](N)[C@@H](O)[C@H](C)O1 [Epirubicin hydrochloride],,,,,,,,,IC50 (SARS‐CoV‐2 Nsp15 [1]; IC50 + DTT (μM) (CI in μM)): 3.4 µM; IC50 (SARS‐CoV‐2 Nsp15 [1]; IC50 +DTT (µM)): 3.37 µM; IC50 (SARS‐CoV‐2 Nsp15 [2]; IC50 + L‐Cys (μM) (CI in μM)): 1.5 µM; IC50 (SARS‐CoV‐2 Nsp15 [2]; IC50 +L-Cys (µM)): 1.46 µM
CCCCCCCCN=c1ccn(CCCCCCCCCCn2ccc(=NCCCCCCCC)cc2)cc1 [Octenidine dihydrochloride],3.8,5.42,92.4,98.6,98.6,103,4.4,5.36,
C/C(=N\NC(=N)N)c1cc(NC(=O)CCCCCCCCC(=O)Nc2cc(/C(C)=N/NC(=N)N)cc(/C(C)=N/NC(=N)N)c2)cc(/C(C)=N/NC(=N)N)c1 [Semapimod],0.6,6.21,,,,,1,6.00,"HC inhibition % +DTT 10 µM (SARS‐CoV‐2 Nsp15 [1]; [9]): 99,81%; PS Inhibition % 10 µM (SARS‐CoV‐2 Nsp15 [1]; [10]): 106,91%; PS inhibition % 10 μM (single point measurement) (SARS‐CoV‐2 Nsp15 [1]; [11]): 106.9%; Inhibition % +L-Cys 10 µM (SARS‐CoV‐2 Nsp15 [2]; 10 µM, L-cysteine buffer): 100,99%"
CC(C)Nc1cccnc1N1CCN(C(=O)c2cc3cc(NS(C)(=O)=O)ccc3[nH]2)CC1 [Delavirdine (mesylate)],2.3,5.64,77.3,80.7,80.7,27.2,,,loss of the inhibition potency in L‐cysteine buffer (SARS‐CoV‐2 Nsp15 [2]): more than 50%
O=C1c2c(O)ccc(O)c2C(=O)c2c(NCCNCCO)ccc(NCCNCCO)c21 [Mitoxantrone hydrochloride],,,,,,,,,IC50 (SARS‐CoV‐2 Nsp15 [1]; IC50 + DTT (μM) (CI in μM)): 1.5 µM; IC50 (SARS‐CoV‐2 Nsp15 [1]; IC50 +DTT (µM)): 1.47 µM; IC50 (SARS‐CoV‐2 Nsp15 [2]; IC50 + L‐Cys (μM) (CI in μM)): 0.5 µM; IC50 (SARS‐CoV‐2 Nsp15 [2]; IC50 +L-Cys (µM)): 0.47 µM
